Test results from patent US20150136233A1, “ORGANIC PHOTOVOLTAIC DEVICES COMPRISING FULLERENES AND DERIVATIVES” (The Regents of the University of California, priority 2013, published 2015).

What was measured:
[1] = LUMO energy level by cyclic voltammetry; assay type: physicochemical; conditions: for LUMO Energy Level: cyclic voltammetry, onset of first reduction, ferrocene internal reference, o-dichlorobenzene/acetonitrile 4:1
Protocol: The electronic property of the synthesized fullerenes are characterized by cyclic voltammetry (CV) using a Bio-Logic Multi-channel Potentiostat with Pt as a counter electrode, Ag/Ag+ as a reference electrode and ferrocene as an internal reference, with 4:1 v/v ratio of o-dichlorobenzene and acetonitrile as solvent and 0.1 M tetrabutylammonium hexafluorophosphate as electrolyte at a scan rate of 100 mV/s. […] The LUMO levels are calculated according to the following equation 2 using the onset of the first reduction. The data are listed in Table 2, LUMOs of C60, C70, PCBM, Bis-PCBM, ICMA and ICBA were measured under the same condition and listed too as reference.
ELUMO=[(EFLN(Vs Ag/Ag+)(E^1/2Ferrocene(Vs Ag/Ag+)]−4.8 eV (equation 2)

[2] = references [15, 18]; cited from earlier work

Row | LUMO Energy Level [1] | LUMO higher than that of PCBM [1] | Compound | LUMO increase compared to pristine C60 [1] | LUMO of bis-addition fullerene higher than LUMO of the mono-addition fullerene (PCBM, ICMA respectively) [2]
1 | −3.76 eV |  | 1′,4′-dihydro-naphtho[2′,3′:1,2][5,6]fullerene-C60 [IC60MA] | about 0.1 eV | 
2 | −3.72 eV | 0.1 eV | bis(1-[3-(methoxycarbonyl)propyl]-1-phenyl)[6.6]C62 [Bis-PC61BM] |  | about 0.1 eV

Row | Compound | LUMO Energy Level [1] | LUMO higher than that of PCBM [1] | LUMO increase compared to pristine C60 [1] | LUMO of bis-addition fullerene higher than LUMO of the mono-addition fullerene (PCBM, ICMA respectively) [2]
3 | COC(=O)CCCC1(c2ccccc2)C23c4c5c6c7c8c9c(c%10c%11c2c2c%12c4c4c%13c5c5c7c7c8c8c%14c9c%10c9c%10c%11c2c2c%11c%12c4c4c%12c%13c5c5c7c7c8c8c%14c9c9c%10c2c2c%11c4c4c%12c5c7c5c8c9c2c45)C613 (stereo not shown) [PC61BM, [6,6]-phenyl C61-butyric acid methyl ester] | −3.80 eV |  | about 0.1 eV | 
